Assay results as given in PMC9268166, “Modeling of Anticancer Sulfonamide Derivatives Lipophilicity by Chemometric and Quantitative Structure-Retention Relationships Approaches” (Molecules, 2022).

Legend:
[1] = IAM chromatography (IAM-HPLC), IAM.PC.DD2 column; type: physicochemical; conditions: for CHI (CHIIAM), Table S2: IAM chromatography, from mean of three retention times; for CHI (CHIIAM), Table S2 / logkIAM: pH 7.4; for logkIAM: logkIAM = 0.045 CHIIAM + 0.42; for CHIIAM: pH 7.4, 30 °C, acetonitrile gradient
From the text: (§1) For this reason, the next step of our study concerns the characterization of investigated sulfonamide derivatives using a chromatographic approach. Generally, in RP-HPLC, the interactions between solutes and the stationary phase surface are mainly governed by lipophilicity. Consequently, RP-HPLC is the primary tool for assessing the lipophilicity of xenobiotics. […] Generally, the chemical character of target solutes determines interactions between the molecule and the stationary phase that may occur. Considering the large variety of RP-HPLC beds and differences in specific surface area, the energy of the sorbent’s intermolecular interactions between solutes and chemical structures, four different reversed-phase stationary phases and IAM column were investigated during this study. The lipophilicity index was presented as a logkw value, so the retention factor was extrapolated to the pure water after calculation using a protocol based on two gradient measurements and DryLab software.
(§2) Since the biomimetic chromatography experiments are carried out at physiological pH to compare obtained results, all chromatographic experiments have been carried out at pH 7.4. […] Consequently, the chromatography lipophilicity indices refer to the distribution coefficient (logD) values, which better reflect the lipophilicity of ionized substances under physiological conditions.
(§3) All HPLC experiments were carried out using a Prominence-1 LC-2030C 3D HPLC system (Shimadzu, Japan) equipped with a DAD detector and controlled by the LabSolution system (version 5.90 Shimadzu, Japan). The stock solutions of solutes were diluted to obtain 100 μg/mL concentrations, and the injected volume was 10 μL. During this study, six different columns in terms of chemical modification of stationary phases were used. Retention times (tR) of investigated sulfonamides were collected, and their detection in all systems was performed at the wavelength characteristic for each compound, summarized in Table S1. For all chromatography systems, analysis was carried out at 40 °C, except for IAM chromatography, in which oven temperature was set to 30 °C. The CHIIAM and CHI18 indices of the target sulfonamides derivatives were obtained using the protocol proposed by Valko and co-workers. C18 chromatography was performed on a Waters-C18 column (150 mm × 3.9 mm; 5.0 µm; Symmetry; USA), with a 1.5 mL/min flow rate. The mobile phase was ammonium acetate buffer (50 mM) at pH 7.4 and acetonitrile as an organic modifier. The linear gradient from 2 to 98% ACN was applied from 0 to 30 min. IAM chromatography was executed on an IAM.PC.DD2 column ([…] × 4.6 mm; 10.0 µm; Regis Technologies, Morton Grove, IL, USA) additionally equipped with an IAM guard column with the same flow rate of 1.5 mL/min. The mobile phase was sodium phosphate buffer (10 mM) at pH 7.4 and acetonitrile as the organic phase. The linear gradient from 0 to 85% was applied within 5.25 min.

[2] = C18 chromatography (RP-HPLC), chromatographic hydrophobicity index; type: physicochemical; conditions: for chromatographic logD: Waters Symmetry C18 column, CHI log D = 0.0525 CHIC18 − 1.467, pH 7.4; for CHIC18: pH 7.4, 40 °C, acetonitrile gradient
From the text: as §1, §2, §3

[3] = Phenyl (Ph) chromatography, logkw from two gradients with DryLab; type: physicochemical; conditions: for logkw, Table S6: Phenyl chromatography, pH 7.4, short and long gradient; for logkwPh: pH 7.4, 40 °C, retention factor extrapolated to 0% organic modifier
From the text: as §1, §2
(§4) For C8, cyanopropyl, and phenyl chromatography, according to the assumption proposed by Snyder and co-workers, appropriate logkw values (i.e., the retention factor logk extrapolated to 0% organic modifier, as an alternative to logP) were obtained. […] Dwell volume for these HPLC systems was measured at 0.780 mL, whereas the obtained dead times for used HPLC columns were equal to 1.530 min, 1.252 min, and 2.335 min for C8, SB-CN, and UK-Phenyl, respectively. The mobile phase was ammonium acetate buffer (50 mM) at pH 7.4 and acetonitrile as an organic modifier in each system. C8 chromatography was performed on Unison UK-C8 column (150 × 2 mm; 3.0 µm. Imtakt; USA) with 0.3 mL/min flow rate. Analyses were carried out in linear gradient from 30 to 100% within 15 min in short gradient and 30 min in long gradient. The Agilent SB-CN column (150 × 4.6 mm; 3.5 µm; Zorbax; USA) was used for the cyanopropyl chromatography. The CN chromatography analyses were carried out in linear gradient from 20 to 100%, which was applied from 0 to 20 min in short gradient, and from 0 to 40 min in long gradient. The flow rate was 1.5 mL/min. The column Unison UK-Phenyl (150 × 2 mm; 3.0 µm; Imtakt; USA) was used to perform phenyl chromatography. The flow rate was set to 0.2 mL/min. The phenyl analyses were carried out in linear gradient from 40 to 100%, which was applied from 0 to 20 min in short gradient, and from 0 to 40 min in long gradient. Each HPLC analysis was run in triplicate; in Tables S2–S6, obtained retention times are listed, whereas representative chromatograms are shown in Figure 9.

[4] = system: human colon cancer (HCT-116); set-up: method as in PMID 29772699, PMID 28122174, PMID 27338337, PMID 26506328; conditions: HCT-116 cell line; cited from earlier work
[5] = Cyanopropyl (CN) chromatography, logkw from two gradients with DryLab; type: physicochemical; conditions: for logkw, Table S5: Cyanopropyl chromatography, pH 7.4, short and long gradient; for logkwCN: pH 7.4, 40 °C, retention factor extrapolated to 0% organic modifier
From the text: as §1, §2, §4

[6] = C8 chromatography (RP-HPLC), logkw from two gradients with DryLab; type: physicochemical; conditions: for logkw, Table S4: C8 chromatography, pH 7.4, short and long gradient; for logkwC8: pH 7.4, 40 °C, retention factor extrapolated to 0% organic modifier
From the text: as §1, §2, §4

| CHI (CHIIAM), Table S2 [1] | logkIAM [1] | chromatographic logD [2] | CHIC18 [2] | logkw, Table S6 [3] | logkwPh [3] | logkw, Table S5 [5] | logkwCN [5] | logkw, Table S4 [6] | logkwC8 [6] | CHIIAM [1] | SMILES | pIC50 [4] |
| --- | --- | --- | --- | --- | --- | --- | --- | --- | --- | --- | --- | --- |
| 42.2 | 2.32 | 2.97 | 84.60 | 4.254 | 4.25 | 2.356 | 2.36 | 4.276 | 4.28 | – | Cc1cc(S(=O)(=O)Nc2nncc(-c3cccc(F)c3)n2)c(SCc2cccc3ccccc23)cc1Cl [Compound 22] | 4.31 |
| 42.0 | 2.31 | 3.51 | 94.80 | 5.556 | 5.56 | 2.966 | 2.97 | 4.593 | 4.59 | – | Cc1ccc2cccnc2c1NS(=O)(=O)c1ccc(-n2cccc2)cc1 [Compound 3] | 4.72 |
| – | 2.21 | 3.04 | 85.90 | 4.476 | 4.48 | 2.471 | 2.47 | 4.380 | 4.38 | 39.80 | COc1ccc(-c2cnnc(NS(=O)(=O)c3cc(C(=O)Nc4ccc(Cl)cc4)c(Cl)cc3SCc3ccccc3)n2)cc1 [Compound 16] | 4.12 |
| – | 2.28 | 3.25 | 89.90 | 4.540 | 4.54 | 2.544 | 2.54 | 4.490 | 4.49 | 41.40 | Cc1ccc(NC(=O)c2cc(S(=O)(=O)Nc3nncc(-c4ccc(C(F)(F)F)cc4)n3)c(SCc3ccccc3)cc2Cl)cc1 [Compound 17] | 4.15 |
| 31.4 | 1.83 | 2.33 | 72.30 | 2.880 | 2.88 | 1.850 | 1.85 | 3.692 | 3.69 | – | Cc1cc(S(=O)(=O)Nc2nnc(C)c(=O)[nH]2)c(SCc2cccc3ccccc23)cc1Cl [Compound 9] | 4.07 |
| 31.4 | 1.83 | 2.89 | 82.90 | 4.079 | 4.08 | 2.300 | 2.30 | 4.055 | 4.06 | – | O=S(=O)(Nc1cccc2nsnc12)c1ccc(-n2cccc2)cc1 [Compound 5] | 4.64 |
| 41.1 | 2.27 | 3.05 | 86.10 | 4.401 | 4.40 | 2.478 | 2.48 | 4.120 | 4.12 | – | COc1ccc(-c2cnnc(NS(=O)(=O)c3cc(C)c(Cl)cc3SCc3cccc4ccccc34)n2)cc1 [Compound 23] | 4.42 |
| – | 2.11 | 2.88 | 82.80 | 4.228 | 4.23 | 2.358 | 2.36 | 4.280 | 4.28 | 37.50 | COc1ccc(-c2cnnc(NS(=O)(=O)c3cc(C(=O)Nc4ccc(C)cc4)c(Cl)cc3SCc3ccccc3)n2)cc1 [Compound 18] | 4.12 |
| 24.3 | 1.51 | 1.88 | 63.80 | 2.810 | 2.81 | 1.780 | 1.78 | 3.300 | 3.30 | – | Cc1cc(C)nc(NS(=O)(=O)c2ccc(-n3cccc3)cc2)n1 [Compound 7] | 4.16 |
| 45.9 | 2.49 | 4.04 | 104.80 | 7.389 | 7.39 | 3.628 | 3.63 | 4.898 | 4.90 | – | Cc1ccc2cccc(NS(=O)(=O)c3ccc(-n4cccc4)cc3)c2n1 [Compound 4] | 5.05 |
| – | 2.00 | 2.7 | 79.30 | 3.897 | 3.90 | 2.162 | 2.16 | 4.070 | 4.07 | 35.20 | Cc1cc(S(=O)(=O)Nc2nnc(Cc3ccccc3[N+](=O)[O-])c(=O)[nH]2)c(SCc2cc3c(cc2Cl)OCO3)cc1Cl [Compound 12] | 4.06 |
| – | 1.93 | 2.72 | 79.70 | 3.967 | 3.97 | 2.216 | 2.22 | 4.068 | 4.07 | 33.60 | COc1cc(-c2cnnc(NS(=O)(=O)c3cc(C(=O)Nc4ccc(C)cc4)c(Cl)cc3SCc3ccccc3)n2)cc(OC)c1OC [Compound 19] | 4.12 |
| – | 2.03 | 2.68 | 78.90 | 4.310 | 4.31 | 2.020 | 2.02 | 4.130 | 4.13 | 35.80 | COc1ccc(-c2cnnc(NS(=O)(=O)c3cc(C(=O)Nc4ccccc4)c(Cl)cc3SCc3ccccc3)n2)cc1 [Compound 14] | 4.11 |
